Results from patent US7045152B2, “Treating pulmonary disorders with gaseous agent causing repletion of GSNO” (Duke University, priority 1999, dated 2006).

What was measured:
Type in all cases: in vivo, human
cystic fibrosis = assay: Inhaled gas / nebulized treatment of patients with cystic fibrosis (Examples IV, IX, XI, XII)
ARDS = assay: Inhaled gas treatment of patients with ARDS (Examples II, VI, VII, VIII)
asthma = assay: Inhaled gas treatment of patients with asthma (Examples III, X); settings: Example III; child, status asthmaticus, intubated; 20 ppm in nitrogen

[Na+].[Na+].[O-][N+]([O-])=NO [Angeli's salt, reference compound]
sputum production (cystic fibrosis; Example XI, 100 mM in 3 cc normal saline nebulized Q 6 hours, over two days, after HNO): decreases in sputum production

CCON=O [Ethylnitrite]
GSNO levels in the airway lining fluid (cystic fibrosis; human, in vivo): increase | blood gases (cystic fibrosis; human, in vivo): improved | pulmonary hemorrhage (cystic fibrosis; human, in vivo): the hemorrhage stops | state of health (cystic fibrosis; human, in vivo): reverts to their normal state of health | PaO2 (ARDS; Example VII, ENO in nitrogen started again (arrow D), from 43): 49 mm Hg | PaO2 (ARDS; Example VII, ENO stopped (arrow C), from 46): 43 mm Hg | blood pressure (ARDS; Example VII, hemodynamically unstable patient, ENO 40 ppm in nitrogen): stabilized | PaO2 (ARDS; Example VII, over the following 12 hours on ENO, progressively less responsive): 37 millimeters of mercury | PaO2 (ARDS; Example VII, person, viral pneumonia progressed to ARDS, initial ENO 40 ppm in nitrogen (arrow A), from 39 on 100% oxygen): 48 mm Hg | PaO2 (ARDS; Example VIII, person, ARDS, inhaled 10 ppm in nitrogen for three days, from 50): 40 mm Hg

CSN=O [Methylthionitrite]
PaO2 (ARDS; Example VI, person, AML, ARDS, intubated, 20 parts per million oxygen, from PO2 40 on 100% oxygen): 70 mm Hg

CC(=O)N[C@@H](CS)C(=O)O [N-acetylcysteine, reference compound]
PaO2 (ARDS; Example VII, nebulized N-acetylcysteine added to ENO (arrow B), from 37): 46 mm Hg

COS(=O)N=O (centres unmarked) [methylnitrososulfinate]
airway pressures (asthma): airway pressures decrease
